Key:
[1] = test system: bFGF protein expression in human cardiac cells; experiment: Immunocytochemistry of human cardiac cell cultures; type: cell-based; settings: 10 and 100 ng/ml for 24 hours
Protocol: Human cardiac cell cultures untreated or treated for 24 hr with 1, 10, and 100 ng/ml of relaxin were analyzed for VEGF and bFGF protein expression by immunocytochemistry. Human cardiac cells were seeded in two chamber slides at 150,000 cells per chamber 24 hours prior to treatment with relaxin. Cells were incubated without or with 10 or 100 ng/ml relaxin for 24 hours. Cells were washed with PBS and fixed with sequential treatment of 4% paraformaldehyde for 10 minutes, ice-cold acetone for 1 minute and ice-cold methanol for 1 minute before air-drying. Slides were then processed as outlined for rat heart sections with the additional use of monoclonal antibodies against vimentin or desmin (Santa Cruz Biotechnology). Cells being analyzed for bFGF expression were stained using the protocol outlined by Vector Laboratories “Vectastain Elite ABC” kit (Vector Labs.), the only deviation from the standard protocol being a 1 hour instead of a 30 minutes primary antibody incubation step. Untreated cells stained diffusely and uniformly for bFGF. Nearly 100% of all cells stained more intensely for bFGF expression following treatment with 10 and 100 ng/ml of relaxin for 24 hours.

THP-1 cells = experiment: THP-1 cells: secreted VEGF protein by ELISA; type: cell-based, human
Protocol: THP-1 cells were obtained from the American Type Culture Collection (ATCC# TIB202), and grown in Iscove's medium supplemented with 10% fetal bovine serum and 2 mM L-glutamine. For experiments, THP-1 cells were cultured at 5×10^5 cells/ml in 24-well plates, treated and allowed to incubate for various times at 37° C. Conditioned media and cells were then collected, and cells removed by centrifugation at 500 g for 5 min. Media were stored at −80° C. until assayed.
VEGF protein was quantified in an ELISA kit purchased from R & D Systems (Minneapolis, Minn.). The lower limit of sensitivity of the assay was 10 pg/ml.
Because macrophages are the inflammatory cells predominantly responsible for the angiogenic response that occurs during healing, a monocyte/macrophage cell line shown previously to bind relaxin with high affinity (THP-1) (Parsell et al. (1996) J. Biol. Chem. 271:27936-27941) was tested for relaxin inducibility of VEGF and bFGF. THP-1 cells were cultured in vitro, treated with relaxin (100 ng/ml) for 3 hours, and assayed for VEGF and bFGF mRNA induction. […] In order to determine whether the increase in VEGF mRNA observed following short-term relaxin treatment was reflected by an elevation in secreted VEGF protein, THP-1 cells were treated with relaxin (0.01-100 ng/ml) for 24 h, the conditioned media collected, and VEGF content in the media quantified by ELISA. […]

Substance: rhRLX: recombinant human relaxin, identical in amino acid sequence to the product of the human H2 gene; A chain of 24, B chain of 29 amino acids
- cells stained more intensely for bFGF expression [1]: ~100%
- VEGF protein secretion (THP-1 cells; 0.01-100 ng/ml for 24 h, dose-dependent): approximately 150%
- threshold relaxin concentration required for stimulation of VEGF protein secretion (THP-1 cells; 24 h): 0.2 to 1.0 ng/mL
